Test results reported in article PMC5974090, “A fluorescence anisotropy assay to discover and characterize ligands targeting the maytansine site of tubulin” (Nature Communications, 2018).
Read-outs that look alike come from different tables or passages of the source.

Legend:
tubulin [1] = target: T1, tubulin (Bos taurus, UniProt Q6B856); design: method as in Panda et al., Proc Natl Acad Sci USA 95, 9313 (1998); details: exact binding site on tubulin unknown; ref Panda et al., Proc Natl Acad Sci USA 95, 9313 (1998); cited from earlier work
[2] = design: method as in Panda et al., Proc Natl Acad Sci USA 95, 9313 (1998); details: ref Panda et al., Proc Natl Acad Sci USA 95, 9313 (1998); cited from earlier work
tubulin [3] = target: T1, tubulin; experiment: Fluorescence anisotropy titration of FcMaytansine with tubulin (direct binding); details: 25 °C
Protocol: The binding constant of the fluorescent FcMaytansine probe to tubulin was determined by fluorescence anisotropy titration at 25 °C in black Greiner 384-well, flat-bottom microplates and in a final volume of 50 µL. 10 nM FcMaytansine in assay buffer (15 mM PIPES-KOH, pH 6.8, supplemented with 0.3 mM MgCl2 and 0.2 mM EDTA) was titrated with increasing amounts of tubulin up to 400 nM. The anisotropy and fluorescence values of the free (r = 0.016 ± 0.001, fluorescence = 1 (arbitrary units)) and bound (r = 0.245 ± 0.005, fluorescence = 3.10 ± 0.05 (arbitrary units)) states were determined in the absence and presence of 400 nM tubulin, respectively. The anisotropy was measured using a PHERAstar microplate reader (BMG Labtech) with the fluorescence polarization module. […] The read height and the gain were adjusted automatically. […]
In order to calculate the binding constant of FcMaytansine and one of a non-fluorescent ligand from a competition experiment, the fractional saturation, νb, of FcMaytansine has to be determined. Binding of FcMaytansine to tubulin was measured through changes in its anisotropy. […]
In the simplest case of a fluorescent probe with no quantum yield difference between the bound and the free state, the fraction of bound (νb) and free (νf) fluorophore coincides with the fluorescence fractions for the bound and free fluorophore (Fb and Ff, respectively). […]

cells = system: cells; design: method as in PMID 25826705; details: in vitro cytotoxicity, compound added exogenously; cited from earlier work
[4] = target: maytansine site of tubulin (Bos taurus, UniProt Q6B856); assay type: binding; details: for Kd: 25 °C, mean ± SEM, n = 3, read-out: Kd from FcMaytansine displacement
Protocol: Vinblastine and colchicine were used as negative controls. […] The mixture was then incubated with an unlabeled competitor at increasing concentrations prior to anisotropy measurements.
Fluorescence anisotropy competition experiments and analyses were performed as previously described[34] with minor modifications. Samples containing 10 nM FcMaytansine and 4 nM tubulin in assay buffer were titrated with increasing amounts of a competitor at 25 °C in black Greiner 384-well, flat-bottom microplates and in a final volume of 50 µL. Fluorescence anisotropy measurements were carried out as described above.
The system was solved using EQUIGRA5[34] using the binding constant of FcMaytansine and a stoichiometry of 1:1 for the tubulin–FcMaytansine complex (EQUIGRA5 can be obtained upon request from Fernando Díaz, fer@cib.csic.es).

tubulin [5] = target: T1, tubulin; design: method as in PMID 20937594; details: reported previously; buffer with 100 mM PIPES; read-out: Kd for the tubulin-maytansine interaction; cited from earlier work
human cancer cell lines = system: human cancer cell lines; design: method as in Xu et al. 2011; Rothmeier et al. 2010; Paterson et al. 2003; details: large panel of human cancer cell lines; ref Xu et al. 2011; Rothmeier et al. 2010; Paterson et al. 2003; cited from earlier work
mouse xenograft models = system: mouse xenograft models; design: method as in Xu et al. 2011; Rothmeier et al. 2010; Paterson et al. 2003; details: ref Xu et al. 2011, Rothmeier et al. 2010, Paterson et al. 2003; cited from earlier work
[6] = 10 nM FcMaytansine, 4 nM tubulin
[7] = 10 nM FcMaytansine, 4 nM tubulin, increasing competitor concentrations

maytansine site of tubulin, sequence (P81947 whole entry): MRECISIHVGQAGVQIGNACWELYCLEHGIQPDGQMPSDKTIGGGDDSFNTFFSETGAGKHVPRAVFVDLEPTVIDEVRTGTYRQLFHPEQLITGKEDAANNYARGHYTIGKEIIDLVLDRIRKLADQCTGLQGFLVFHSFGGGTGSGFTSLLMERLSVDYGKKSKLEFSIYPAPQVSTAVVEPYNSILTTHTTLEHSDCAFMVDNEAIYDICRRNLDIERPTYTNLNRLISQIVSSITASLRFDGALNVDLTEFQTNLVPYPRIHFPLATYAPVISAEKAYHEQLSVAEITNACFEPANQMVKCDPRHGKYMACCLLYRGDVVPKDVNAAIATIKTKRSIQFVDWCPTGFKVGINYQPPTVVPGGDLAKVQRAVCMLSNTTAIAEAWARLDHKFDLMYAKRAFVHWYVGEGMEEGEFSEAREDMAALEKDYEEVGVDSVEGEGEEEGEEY
maytansine site of tubulin, sequence (Q6B856 whole entry): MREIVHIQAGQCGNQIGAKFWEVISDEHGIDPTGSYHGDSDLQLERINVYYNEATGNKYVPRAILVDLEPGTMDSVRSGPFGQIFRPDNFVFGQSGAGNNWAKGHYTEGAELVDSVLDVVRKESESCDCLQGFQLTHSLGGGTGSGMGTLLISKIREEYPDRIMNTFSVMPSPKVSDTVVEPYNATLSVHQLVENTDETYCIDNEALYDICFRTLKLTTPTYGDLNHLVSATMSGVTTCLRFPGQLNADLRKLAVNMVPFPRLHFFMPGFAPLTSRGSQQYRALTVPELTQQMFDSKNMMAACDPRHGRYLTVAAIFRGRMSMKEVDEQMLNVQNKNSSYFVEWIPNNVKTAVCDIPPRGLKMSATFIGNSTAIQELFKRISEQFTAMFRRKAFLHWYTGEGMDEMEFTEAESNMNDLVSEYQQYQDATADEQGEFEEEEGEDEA
T1 sequence (Q6B856 whole entry): as above
T1 sequence (P81947 whole entry partner): as the sequence (P81947 whole entry) above

COc1ccc(C[C@H]2NC(=O)/C=C/C[C@@H]([C@H](C)[C@H]3O[C@@H]3c3ccccc3)OC(=O)[C@H](CC(C)C)OC(=O)C(C)(C)CNC2=O)cc1Cl [Cryptophycin 52]
Kd (tubulin [1]): 47 nM | IC50 [2]: 0.02 nM

COc1cc2cc(c1Cl)N(C)C(=O)CC(OC(=O)CCCCc1cn(CCCNC(=O)c3ccc(C(=O)O)c(-c4c5ccc(=O)cc-5oc5cc(O)ccc45)c3)nn1)C1(C)OC1C(C)C1CC(O)(NC(=O)O1)C(OC)C=CC=C(C)C2 (centres unmarked) [FcMaytansine]
Kd (tubulin [3]; 10 nM FcMaytansine, tubulin 0 to 400 nM, single binding site model, mean ± SEM, n = 5, read-out: dissociation constant, Kd, for the tubulin-FcMaytansine interaction): 6.8 ± 0.8 nM | binding constant of FcMaytansine to tubulin (tubulin [3]; stoichiometry 1:1, association constant): 1.6 ± 0.3 × 10^8 M^−1

COc1cc2cc(c1Cl)N(C)C(=O)CC(OC(=O)C(C)N(C)C(=O)CCSC1CC(=O)N(CC3CCC(C(=O)NCCCCC(N)C(=O)O)CC3)C1=O)C1(C)OC1C(C)C1CC(O)(NC(=O)O1)C(OC)C=CC=C(C)C2 (centres unmarked) [M9]
fold less potent in cellular assays than S-Me DM1 (cells): ~ 450 fold

C/C=C\C[C@@H](C/C=C\NC(=O)[C@@H](NC(=O)\C=C/C=C\C(C)=C\[C@H](C)[C@@H]1CC=C(OC)C(=O)O1)C(C)(C)C)OC(N)=O [PM060184]
Kd [4, 6]: 111 ± 30 nM | displacement of FcMaytansine from tubulin [4, 7]: fully displaced

C/C=C/[C@H](O)C(C)(C(=O)OC)[C@@H]1C\C=C/C=C/C=C/c2nc(co2)C(=O)O[C@H](C(C)(C(=O)OC)[C@@H](O)/C=C/C)C\C=C/C=C/C=C/c2nc(co2)C(=O)O1 (some centres unmarked) [disorazole Z]
binding affinity value relative to maytansine and spongistatin ([4]; times higher Kd than maytansine and spongistatin, rebuttal letter): ~ 100 times

COc1cc2cc(c1Cl)N(C)C(=O)C[C@H](OC(=O)[C@H](C)N(C)C(C)=O)[C@]1(C)O[C@H]1[C@H](C)[C@@H]1C[C@@](O)(NC(=O)O1)[C@H](OC)/C=C/C=C(\C)C2 [maytansine]
Kd (tubulin [5]): ~900 nM

CC[C@]1(O)C[C@@H]2CN(CCc3c([nH]c4ccccc34)[C@@](C(=O)OC)(c3cc4c(cc3OC)N(C)[C@H]3[C@@](O)(C(=O)OC)[C@H](OC(C)=O)[C@]5(CC)C=CCN6CC[C@]43[C@@H]65)C2)C1 [vinblastine]
displacement of FcMaytansine from tubulin [4]: not

ansamitocin P3
displacement of FcMaytansine from tubulin [4, 7]: fully displaced

spongistatin-1
Kd [4, 6]: 9.5 ± 1.9 nM | antiproliferative activity (human cancer cell lines): single digit picomolar | in vivo antitumour activity (mouse xenograft models): antitumour activity
